Assay results: BindingDB's records for doi:10.3109/14756366.2012.715288 (Ankara University, 2013)

What was measured:
[1] = target: Proto-oncogene tyrosine-protein kinase Src (Homo sapiens, UniProt P12931); test: In Vitor Src Tyrosine Kinase Activity Assay; conditions: 22 °C
Method: (§1) Kinase activity (Src-family kinases, Hck, Lyn, Fyn, and c-Src) and the effect of the molecules were determined by ProFluor Src-Family Kinase Assay Kit (Promega). […] The compounds were dissolved in 10% DMSO and tested at 1, 10 and 100 μM concentrations. Briefly, the molecules were mixed with a reaction buffer that included a specific substrate for Src-family kinases (R110), a control substrate and the kinase. The reaction was initiated by the addition of ATP. After incubating the 96-well reaction plate at 22°C for 1 h, protease solution was added to each well and the plate was incubated for 1 h.

[2] = target: Tyrosine-protein kinase Lyn (Homo sapiens, UniProt P07948); test: In Vitor Src Tyrosine Kinase Activity Assay; conditions: 22 °C
Chain of Tyrosine-protein kinase Lyn (P07948 whole entry): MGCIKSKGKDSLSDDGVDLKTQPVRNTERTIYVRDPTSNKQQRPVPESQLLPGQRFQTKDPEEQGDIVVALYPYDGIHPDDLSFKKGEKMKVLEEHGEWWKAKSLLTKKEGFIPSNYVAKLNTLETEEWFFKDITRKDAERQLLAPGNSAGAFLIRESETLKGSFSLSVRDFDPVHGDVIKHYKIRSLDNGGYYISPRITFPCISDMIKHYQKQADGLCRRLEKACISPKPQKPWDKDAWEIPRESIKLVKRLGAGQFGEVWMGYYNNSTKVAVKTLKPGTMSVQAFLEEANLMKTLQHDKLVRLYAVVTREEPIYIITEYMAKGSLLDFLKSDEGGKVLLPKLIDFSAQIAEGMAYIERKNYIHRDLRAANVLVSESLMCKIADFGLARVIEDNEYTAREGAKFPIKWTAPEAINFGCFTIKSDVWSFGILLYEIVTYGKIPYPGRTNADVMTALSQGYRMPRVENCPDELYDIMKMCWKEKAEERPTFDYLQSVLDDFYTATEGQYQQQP
Method: as §1

Chain of Proto-oncogene tyrosine-protein kinase Src (P12931 2-536 limits assumed): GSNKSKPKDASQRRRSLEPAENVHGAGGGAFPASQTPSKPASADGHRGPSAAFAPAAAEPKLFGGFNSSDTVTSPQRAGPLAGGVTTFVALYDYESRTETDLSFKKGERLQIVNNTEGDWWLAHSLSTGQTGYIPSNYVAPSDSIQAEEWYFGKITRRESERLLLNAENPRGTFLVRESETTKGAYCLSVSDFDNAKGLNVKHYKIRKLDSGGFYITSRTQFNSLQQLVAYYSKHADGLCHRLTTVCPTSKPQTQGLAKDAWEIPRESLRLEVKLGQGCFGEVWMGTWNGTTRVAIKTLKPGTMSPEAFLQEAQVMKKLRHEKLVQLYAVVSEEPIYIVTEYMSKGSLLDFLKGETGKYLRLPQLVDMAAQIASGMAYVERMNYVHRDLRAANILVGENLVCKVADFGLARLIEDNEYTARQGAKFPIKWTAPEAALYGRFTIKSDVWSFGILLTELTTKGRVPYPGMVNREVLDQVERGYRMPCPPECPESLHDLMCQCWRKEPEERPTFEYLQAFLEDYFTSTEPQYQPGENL

| Compound | IC50 [1] [µM] | IC50 [2] [nM] |
| --- | --- | --- |
| COc1ccc(CCCC(=O)NCc2c[nH]c3nc(N)[nH]c(=O)c23)cc1OC [N-((2-Amino-4-oxo-4,7-dihydro-3H-pyrrolo[2,3-d]pyrimidin-5-yl)methyl)-4-(3,4-dimethoxyphenyl)butanamide (5)] | 21 |  |
| Cc1ccc(C(=O)NCc2c[nH]c3nc(N)[nH]c(=O)c23)s1 [N-[(2-Amino-4-oxo-4,7-dihydro-3H-pyrrolo[2,3-d]pyrimidin-5-yl)methyl]-5-methylthiophene-2-carboxamide (7)] | 16 |  |
| CN1CCN(C2CCC(n3cc(-c4ccc(Oc5ccccc5)cc4)c4c(N)ncnc43)CC2)CC1 (centres undefined) [A-419259] |  | 0.3 |
| COc1cccc(-c2cn(-c3ccc(CCN4CCC(O)CC4)cc3)c3ncnc(N)c23)c1 [CGP77675] | 0.0004 |  |
